Read-outs that look alike come from different tables or passages of the source.
Assays:
[1] = system: histamine subtype 3 (H3) receptor; details: cited from earlier work
[2] = cited from earlier work
SERT = SERT (Homo sapiens, UniProt P31645); experiment: SERT activity in receptor profiling; format: binding
histamine H3 [3] = molecular target: T1, histamine H3 (Homo sapiens, UniProt Q9Y5N1); experiment: functional assay, H3; format: biochemical
[4] = molecular target: T2, norepinephrine transporter, NET (Homo sapiens, UniProt P23975); experiment: functional assay, NET; format: biochemical
T2 sequence (P23975 whole entry): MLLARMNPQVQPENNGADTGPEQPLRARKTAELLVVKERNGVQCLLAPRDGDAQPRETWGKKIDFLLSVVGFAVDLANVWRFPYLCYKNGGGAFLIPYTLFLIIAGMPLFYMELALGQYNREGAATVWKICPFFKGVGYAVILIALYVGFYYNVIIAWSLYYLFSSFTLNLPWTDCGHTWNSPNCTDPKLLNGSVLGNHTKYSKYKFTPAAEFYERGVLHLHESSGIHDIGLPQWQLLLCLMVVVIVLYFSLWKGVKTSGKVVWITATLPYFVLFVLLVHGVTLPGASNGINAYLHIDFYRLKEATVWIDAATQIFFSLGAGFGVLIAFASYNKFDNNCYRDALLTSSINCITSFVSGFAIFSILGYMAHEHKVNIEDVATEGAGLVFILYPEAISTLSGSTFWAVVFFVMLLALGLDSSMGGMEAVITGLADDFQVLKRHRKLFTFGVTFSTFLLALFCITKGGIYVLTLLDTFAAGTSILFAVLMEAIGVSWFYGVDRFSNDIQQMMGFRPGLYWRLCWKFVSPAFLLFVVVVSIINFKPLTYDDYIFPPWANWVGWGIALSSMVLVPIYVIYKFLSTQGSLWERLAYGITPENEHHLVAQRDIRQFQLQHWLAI

[5] = molecular target: T3, Dopamine Transporter, DAT (Homo sapiens, UniProt Q01959); experiment: radioligand binding assay, DAT
T3 sequence (Q01959 whole entry): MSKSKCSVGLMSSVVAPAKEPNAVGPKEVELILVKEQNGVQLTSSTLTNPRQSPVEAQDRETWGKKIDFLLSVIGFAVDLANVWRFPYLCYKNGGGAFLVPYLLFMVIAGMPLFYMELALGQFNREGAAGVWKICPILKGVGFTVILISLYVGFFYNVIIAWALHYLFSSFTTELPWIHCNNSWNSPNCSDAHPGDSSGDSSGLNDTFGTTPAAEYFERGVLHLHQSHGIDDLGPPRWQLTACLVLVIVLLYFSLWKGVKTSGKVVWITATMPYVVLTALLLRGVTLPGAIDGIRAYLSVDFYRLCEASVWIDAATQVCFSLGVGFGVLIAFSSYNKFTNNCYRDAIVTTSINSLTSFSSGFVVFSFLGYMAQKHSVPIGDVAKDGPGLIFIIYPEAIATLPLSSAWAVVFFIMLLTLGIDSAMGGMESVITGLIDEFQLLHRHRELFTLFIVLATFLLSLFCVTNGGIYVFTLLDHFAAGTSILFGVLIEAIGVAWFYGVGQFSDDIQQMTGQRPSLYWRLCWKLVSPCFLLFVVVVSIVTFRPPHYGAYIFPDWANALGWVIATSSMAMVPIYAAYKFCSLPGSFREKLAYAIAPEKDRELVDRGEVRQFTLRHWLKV

[6] = standard cytotoxicity assay
[7] = cited from earlier work; remark: listed apart in the source
HCT116 cells = experiment: HCT116 colon carcinoma cell viability assay; format: cell-based; details: for effect on HCT116 cell viability: after 48 hours
[8] = system: 68 GPCRs, ion channels and transporters; experiment: external panel of radioligand binding assays
[9] = molecular target: T3, Dopamine Transporter, DAT; experiment: functional assay, DAT; format: biochemical
[10] = molecular target: T2, norepinephrine transporter, NET; experiment: radioligand binding assay, NET
histamine H3 [11] = molecular target: T1, histamine H3; experiment: radioligand binding assay, H3
SW620 cells [12] = experiment: cell viability, SW620; format: cell-based
SW620 cells [13] = experiment: BrdU proliferation assay, SW620; format: cell-based; details: 10 μM, 48 hours
H520 cells [14] = experiment: cell viability, H520; format: cell-based
H520 cells [15] = experiment: BrdU proliferation assay, H520; format: cell-based; details: 10 μM, 48 hours

T1 sequence (Q9Y5N1 whole entry): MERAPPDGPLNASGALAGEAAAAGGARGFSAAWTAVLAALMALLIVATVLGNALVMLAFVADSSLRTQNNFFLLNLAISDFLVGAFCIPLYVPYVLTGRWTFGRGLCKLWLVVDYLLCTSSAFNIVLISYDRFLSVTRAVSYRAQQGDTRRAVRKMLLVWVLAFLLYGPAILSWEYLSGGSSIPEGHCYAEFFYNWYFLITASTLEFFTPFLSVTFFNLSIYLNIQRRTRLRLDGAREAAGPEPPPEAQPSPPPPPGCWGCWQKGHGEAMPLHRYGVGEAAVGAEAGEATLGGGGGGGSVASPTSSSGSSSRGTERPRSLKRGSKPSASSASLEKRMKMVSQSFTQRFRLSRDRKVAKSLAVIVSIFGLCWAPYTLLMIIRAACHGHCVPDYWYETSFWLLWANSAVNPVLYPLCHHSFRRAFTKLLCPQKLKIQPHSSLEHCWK
Chain of SERT (P31645 whole entry, species assumed): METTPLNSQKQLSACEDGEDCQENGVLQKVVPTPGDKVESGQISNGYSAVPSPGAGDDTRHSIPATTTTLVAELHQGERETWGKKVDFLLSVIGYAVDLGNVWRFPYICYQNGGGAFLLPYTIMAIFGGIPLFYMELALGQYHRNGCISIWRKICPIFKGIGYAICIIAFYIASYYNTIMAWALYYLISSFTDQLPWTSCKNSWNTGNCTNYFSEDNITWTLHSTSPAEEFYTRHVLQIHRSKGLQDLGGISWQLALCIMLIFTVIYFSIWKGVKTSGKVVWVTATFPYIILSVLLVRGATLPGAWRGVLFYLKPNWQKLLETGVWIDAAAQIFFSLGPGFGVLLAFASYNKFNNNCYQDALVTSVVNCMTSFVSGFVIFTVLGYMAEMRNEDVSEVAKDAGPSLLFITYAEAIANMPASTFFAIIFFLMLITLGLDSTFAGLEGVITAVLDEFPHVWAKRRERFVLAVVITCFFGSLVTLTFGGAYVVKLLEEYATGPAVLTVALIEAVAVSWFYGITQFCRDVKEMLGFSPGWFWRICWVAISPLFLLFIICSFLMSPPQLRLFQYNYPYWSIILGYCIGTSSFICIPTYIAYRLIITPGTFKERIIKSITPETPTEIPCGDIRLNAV

CN(C)CCCOc1c(Br)cc(CCN(C)C)cc1Br [compound 1, aplysamine]
affinity for and inhibition of H3 receptor [1]: displayed both affinity for, and inhibition of

COc1ccc(C/C(=N\O)C(=O)NCCc2c[nH]cn2)cc1Br [compound 2, verogamine]
affinity for and inhibition of H3 receptor [1]: displayed both affinity for, and inhibition of

C[C@H]1[C@H]2CC[C@H]3[C@@H]4CC=C5C[C@@H](N(C)C)CC[C@]5(C)[C@H]4CC[C@]23CN1C [compound 3, conessine]
affinity for and inhibition of H3 receptor [1]: displayed both affinity for, and inhibition of

CN(C)CCCOc1ccc(CCNC(=O)c2cc(Br)c[nH]2)cc1Br [compound 4, dispyrin]
affinity for and inhibition of H3 receptor [1]: displayed both affinity for, and inhibition of

N=C(N)NCCCC1NCCc2c1[nH]c1ccccc21 (stereo not drawn) [compound 5, trypargine]
toxicity [2]: highly toxic

N=C(N)NCCC[C@H]1NCCc2c1[nH]c1cc(Br)ccc21 [compound 7, (+)-7-Bromotrypargine]
SERT activity (SERT): devoid of SERT activity
SERT activity (SERT; listed as (+)-7-bromotrypargine): without inhibiting SERT
IC50 (histamine H3 [3]): 3600 nM
IC50 [4]: 1900 nM
% Inhibition (@10 μM) ([5]; 10 μM, radioligand binding): 81%
Ki ([5]; binding): 3000 nM
cytotoxicity: non-toxic up to [6]: > 20 µM
antimalarial activity [7]: found to possess antimalarial activity
effect on HCT116 cell viability (HCT116 cells): no affect on HCT116 cell viability
pharmacological profile in panel of 68 targets [8]: significant percent inhibition at only three targets
IC50 [9]: 3800 nM
% Inhibition (@10 μM) ([10]; 10 μM, radioligand binding): 82%
Ki ([10]; binding): 1900 nM
% Inhibition (@10 μM) (histamine H3 [11]; 10 μM, radioligand binding): 74%
Ki (histamine H3 [11]; binding): 1800 nM

NCCC[C@H]1NCCc2c1[nH]c1cc(Br)ccc21 [compound 21, (R)-3-(7-bromo-2,3,4,9-tetrahydro-1H-pyrido[3,4-b]indol-1-yl)propan-1-amine]
activity on cell viability (SW620 cells [12]): significant activity on cell viability
inhibition of proliferation (BrdU) (SW620 cells [13]): dramatic affects inhibiting proliferation
activity on cell viability (H520 cells [14]): significant activity on cell viability
IC50 (HCT116 cells; Homo sapiens, HCT-116, 48 h): 3000 nM
effect on HCT116 cell viability (HCT116 cells): completely killing the cells
cytotoxicity in multiple cell lines (HCT116 cells; multiple non-transformed and colon cancer cell lines): extremely cytotoxic
inhibition of proliferation (BrdU) (H520 cells [15]): dramatic affects inhibiting proliferation

From article PMC3254090 (ACS chemical neuroscience, 2011)
